# Source: ChEMBL document CHEMBL1150369, “Conformation-opioid activity relationships of bicyclic guanidines from 3D similarity analysis” (Bioorg Med Chem, 2008)
# Assays:
# [1] = target: Kappa-type opioid receptor (Cavia porcellus, UniProt P41144); test: Displacement of [3H]U69593 from kappa opioid receptor in guinea pig brain homogenate; assay type: tissue-based
# Mu-type opioid receptor = Mu-type opioid receptor (Homo sapiens, UniProt P35372); test: Binding affinity at mu opioid receptor
# [2] = target: Delta-type opioid receptor (Homo sapiens, UniProt P41143); test: Binding affinity at delta opioid receptor
# Chain of Delta-type opioid receptor (P41143 whole entry): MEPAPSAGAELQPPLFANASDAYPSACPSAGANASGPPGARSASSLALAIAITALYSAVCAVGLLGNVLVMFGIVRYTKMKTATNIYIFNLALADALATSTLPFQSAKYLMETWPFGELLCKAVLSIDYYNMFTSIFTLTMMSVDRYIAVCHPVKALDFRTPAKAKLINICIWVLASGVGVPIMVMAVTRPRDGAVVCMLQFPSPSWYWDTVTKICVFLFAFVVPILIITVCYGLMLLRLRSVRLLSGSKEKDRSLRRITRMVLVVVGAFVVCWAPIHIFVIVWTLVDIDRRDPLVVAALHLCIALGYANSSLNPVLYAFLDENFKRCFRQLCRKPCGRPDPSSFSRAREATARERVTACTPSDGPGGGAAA
# Chain of Kappa-type opioid receptor (P41144 whole entry): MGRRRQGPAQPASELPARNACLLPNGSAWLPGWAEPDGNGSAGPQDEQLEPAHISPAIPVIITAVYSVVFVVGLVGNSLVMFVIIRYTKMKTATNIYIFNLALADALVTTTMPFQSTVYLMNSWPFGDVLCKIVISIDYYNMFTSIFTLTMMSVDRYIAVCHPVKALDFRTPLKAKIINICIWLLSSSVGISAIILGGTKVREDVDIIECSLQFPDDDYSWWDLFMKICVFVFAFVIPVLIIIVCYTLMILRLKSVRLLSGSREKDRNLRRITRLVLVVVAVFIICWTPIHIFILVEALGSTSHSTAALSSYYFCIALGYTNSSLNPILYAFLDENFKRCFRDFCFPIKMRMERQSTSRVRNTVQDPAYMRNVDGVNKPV
# Chain of Mu-type opioid receptor (P35372 whole entry): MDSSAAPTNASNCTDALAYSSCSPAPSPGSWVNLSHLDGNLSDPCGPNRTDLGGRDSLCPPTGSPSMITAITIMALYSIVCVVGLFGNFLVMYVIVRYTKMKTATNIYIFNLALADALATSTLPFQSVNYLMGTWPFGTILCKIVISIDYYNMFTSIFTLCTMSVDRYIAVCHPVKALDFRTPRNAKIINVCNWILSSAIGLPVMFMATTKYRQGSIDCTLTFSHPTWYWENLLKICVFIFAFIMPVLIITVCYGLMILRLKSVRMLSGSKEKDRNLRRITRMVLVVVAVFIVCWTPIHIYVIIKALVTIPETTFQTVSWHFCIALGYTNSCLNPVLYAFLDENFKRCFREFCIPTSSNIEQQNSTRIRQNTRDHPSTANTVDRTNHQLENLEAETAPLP
IC50 [1],Compound,IC50 (Mu-type opioid receptor),IC50 [2]
5440 nM,CC(C)C[C@@H]1CN2C(=NC[C@@H]2C)N1CCCC1CCCCC1,–,–
151 nM,CCOc1ccc(C[C@@H]2CN3C(=NC[C@@H]3C)N2CCC23CC4CC(CC(C4)C2)C3)cc1,–,–
5060 nM,CC1CCC(CN2C3=NC[C@H](C)N3C[C@@H]2C2CCCCC2)CC1 (stereo not given in full),–,–
1490 nM,C1CCC([C@H]2CN3C(=NC[C@@H]3C3CCCCC3)N2CCC23CC4CC(CC(C4)C2)C3)CC1,–,–
> 10000 nM,COc1ccc(C[C@H]2CN3C(=NC[C@H]3CC3CCCCC3)N2CC2CCCC2)cc1,–,–
> 10000 nM,CCC[C@H]1CN=C2N(CC3CCC3)[C@H](Cc3ccc(OC)cc3)CN21,–,–
1940 nM,C[C@H]1CN=C2N(CCC34CC5CC(CC(C5)C3)C4)[C@@H](C3CCCCC3)CN21,–,–
3740 nM,CC(C)C[C@@H]1CN2C(=NC[C@@H]2C2CCCCC2)N1CCCC1CCCCC1,–,–
457 nM,COc1ccc(C[C@@H]2CN3C(=NC[C@H]3CC3CCCCC3)N2CCC23CC4CC(CC(C4)C2)C3)cc1,–,–
–,COc1ccc(C[C@@H]2CN3C(=NC[C@@H]3C)N2CCC2CC3CCC2C3)cc1 (stereo not given in full),20300 nM,2070 nM
1750 nM,CC(C)C[C@@H]1CN2C(=NC[C@H]2C2CCCCC2)N1CCC12CC3CC(CC(C3)C1)C2,–,–
> 10000 nM,COc1ccc(C[C@@H]2CN3C(=NC[C@@H]3C3CCCCC3)N2CCC23CC4CC(CC(C4)C2)C3)cc1,–,–
1770 nM,CC(C)C[C@@H]1CN2C(=NC[C@H]2C2CCCCC2)N1CCCC1CCCCC1,–,–
> 10000 nM,CC(C)C[C@H]1CN2C(=NC[C@@H]2C)N1CCCC1CCCCC1,–,–
3640 nM,CC(C)C[C@@H]1CN2C(=NC[C@@H]2C)N1CCC12CC3CC(CC(C3)C1)C2,–,–
> 10000 nM,COc1ccc(C[C@@H]2CN3C(=NC[C@H]3C3CCCCC3)N2CCC23CC4CC(CC(C4)C2)C3)cc1,–,–
> 10000 nM,C1CCC([C@H]2CN3C(=NC[C@H]3C3CCCCC3)N2CCC23CC4CC(CC(C4)C2)C3)CC1,–,–
1210 nM,CC(C)C[C@@H]1CN2C(=NC[C@@H]2C2CCCCC2)N1CCC12CC3CC(CC(C3)C1)C2,–,–
–,COc1ccc(C[C@H]2CN3C(=NC[C@@H]3C)N2CCCC2CCCCC2)cc1,421 nM,5460 nM
> 10000 nM,CC(C)[C@H]1CN2C(=NC[C@@H]2C)N1CCCCC1CCCCC1,–,–
321 nM,CCOc1ccc(C[C@@H]2CN3C(=NC[C@@H]3CC)N2CCC2CC3CCC2C3)cc1 (stereo not given in full),–,–
> 10000 nM,CCC[C@H]1CN=C2N(CC3CCC3)[C@@H](Cc3ccc(OC)cc3)CN21,–,–
4920 nM,COc1ccc(C[C@H]2CN3C(=NC[C@@H]3C3CCCCC3)N2CCC23CC4CC(CC(C4)C2)C3)cc1,–,–
> 10000 nM,COc1ccc(C[C@H]2CN3C(=NC[C@@H]3C(C)C)N2CC2CCCC2)cc1,–,–
> 10000 nM,C[C@H]1CN2C(=NC[C@@H]2C)N1CCC12CC3CC(CC(C3)C1)C2,–,–
2310 nM,CC(C)C[C@@H]1CN2C(=NC[C@@H]2C)N1CCC1CC2CCC1C2 (stereo not given in full),–,–

Compound,IC50 [1],IC50 (Mu-type opioid receptor),IC50 [2]
CC(C)C[C@@H]1CN2C(=NC[C@@H]2C2CCCCC2)N1CC1CCC(C)CC1 (stereo not given in full),999 nM,–,–
CCCC[C@@H]1CN=C2N(CCC3CC4CCC3C4)[C@H](Cc3ccc(OC)cc3)CN21 (stereo not given in full),430 nM,–,–
CCOc1ccc(C[C@@H]2CN3C(=NC[C@@H]3C)N2CCC2CC3CCC2C3)cc1 (stereo not given in full),185 nM,–,–
COc1ccc(C[C@H]2CN3C(=NC[C@@H]3C)N2CCC23CC4CC(CC(C4)C2)C3)cc1,1530 nM,–,–
C1CCC([C@H]2CN3C(=NC[C@H]3C3CCCCC3)N2CCC2CC3CCC2C3)CC1 (stereo not given in full),524 nM,–,–
CC(C)C[C@@H]1CN2C(=NC[C@H]2C2CCCCC2)N1CC1CCC(C)CC1 (stereo not given in full),738 nM,–,–
C1CCC([C@H]2CN3C(=NC[C@@H]3C3CCCCC3)N2CCC2CC3CCC2C3)CC1 (stereo not given in full),560 nM,–,–
